The target of test [1] is human recombinant IRAK4 protein (Homo sapiens (Human), UniProt Q9NWZ3). As to the kind of experiment: IRAK4 enzyme assay (mass spectrometry readout). The following applies: 3 mM ATP, 0.2 nM enzyme; geometric mean of at least n=2, * single experiment. It is filed as biochemical. Put shortly:
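0.2 nM IRAK4 preincubated 15 min at room temperature with compound (10-point half-log series, top 1 μM or 10 μM) in pH 7.4 Tris buffer with 3 mM ATP; 10 μM peptide substrate added, 2 h at room temperature, formic acid stop. Phospho/unphospho peptide ratio by LC-MS/MS; potency from curve fit, geometric mean of n≥2 or single run.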

The test system of test [2] is IL-1β stimulated IL-8 release in hTHP1 cells. As to the kind of experiment: IL-1β-induced IL-8 release in human THP-1 monocyte cell line. It is filed as cell-based. The note with it: THP-1 cells, IL-1β 1.8 ng/mL. On the procedure:
Effect of IRAK4 Inhibitors on IL-1β-Induced Cytokine Release in Human THP-1 Monocyte Cell Line
THP-1 cells were cultured in RPMI 1640 (Gibco 72400-021) containing 10% FBS (Gibco 10270-106), 1 mM Na-pyruvate (Gibco 11360-070) and 100 U/mL Penicillin-Streptomycin (Gibco 15140-122). Cells were plated at 5×10^4 cells per well in 384 well Echo certified plates (Labcyte PPT-0200) to which compounds had been added at various concentrations (10 point half log dose response with a final top concentration of 10 μM) using an Echo 655 (Labcyte Inc). The plate was incubated for 1 h at 37° C., then recombinant […] (R&D Systems 201-LB-025/CF) was added to a final concentration of 1.8 ng/mL. The plates were incubated at 37° C. for 18h. The plates were centrifuged at 250×g for four minutes, then 1.6 μL of the cell supernatant was transferred to a white low volume 384 well plate (Greiner #784075) using acoustic dispensing on an Echo 655. Next, 200 nL of acceptor bead (5 mg/mL) and biotinylated anti-IL-8 antibody (500 nM) was added using acoustic dispensing (beads and antibody were from a PerkinElmer 18 Alpha LISA detection kit, AL224C). The plate was sealed, briefly centrifuged, then incubated at room temperature for 1 h. Afterwards, 200 nL of donor bead solution (5 mg/mL) was added, the plate sealed and briefly centrifuged, then incubated for 1 h before being read on an Envision plate reader to allow determination the concentration of IRAK4 inhibitor required to effect a 50% reduction in the amount of IL-8 released following IL-1β stimulation in THP1 cells (Table 2). The quantified data were analysed in Genedata Screener 15 (Genedata AG). Data presented are the geometric mean of at least n=2, or as denoted by an * are obtained from a single experiment.

The target of test [3] is IRAK4 auto-phosphorylation (Homo sapiens (Human), UniProt Q9NWZ3). As to the kind of experiment: IRAK4 phosphorylation cell assay in IL-1β-stimulated Karpas-299 cells. It is filed as cell-based. The note with it: IL-1β 22.7 ng/mL, pIRAK4 (Thr345/Ser346), geometric mean of at least 2 experiments. The gist of the method: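 Karpas-299 cells were preincubated 1 h at 37 °C with compound (10-point half-log series, top 30 μM), then stimulated 10 min with 22.7 ng/mL IL-1β. Cells were fixed and stained for pIRAK4 (Thr345/Ser346), and per-cell fluorescence was quantified by high-content imaging. IC50 values are geometric means of at least 2 experiments.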

Where [4] appears, read: Homo sapiens, THP-1, 18 h, geometric mean of at least n=2, * n = 1, read-out: hTHP1, IL1β stim, IL8 release red. IC50.
Setting [5] is: 18 h, geometric mean of at least n=2, * n = 1, read-out: hTHP1, IL1β stim, IL8 release red. IC50.

Where two headings read alike, the source gives them in different places.

A word on the IC50: it is the midpoint of a concentration-inhibition curve.

Sequence of human recombinant IRAK4 protein (Q9NWZ3 whole entry): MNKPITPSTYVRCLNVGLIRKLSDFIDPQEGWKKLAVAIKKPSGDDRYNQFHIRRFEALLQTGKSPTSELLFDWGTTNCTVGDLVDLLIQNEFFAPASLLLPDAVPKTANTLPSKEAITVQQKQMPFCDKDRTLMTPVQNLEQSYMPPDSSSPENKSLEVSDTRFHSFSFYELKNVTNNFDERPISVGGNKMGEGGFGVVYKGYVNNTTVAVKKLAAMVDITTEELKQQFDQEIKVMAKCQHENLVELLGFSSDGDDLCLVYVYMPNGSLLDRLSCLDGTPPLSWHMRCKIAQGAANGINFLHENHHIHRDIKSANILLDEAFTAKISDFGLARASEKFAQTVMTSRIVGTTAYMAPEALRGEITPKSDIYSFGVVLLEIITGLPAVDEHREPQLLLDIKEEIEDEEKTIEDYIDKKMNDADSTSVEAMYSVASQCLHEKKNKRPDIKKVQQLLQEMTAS
Sequence of IRAK4 auto-phosphorylation (Q9NWZ3 whole entry): as above

As to `COc1cc2nn([C@H]3CC[C@]4(CC3)CC(=O)N(C)C4)cc2cc1C(=O)Nc1cnn2cccnc12` [Example 86, 6-methoxy-2-((5r,8r)-2-methyl-3-oxo-2-azaspiro[4.5]decan-8-yl)-N-(pyrazolo[1,5-a]pyrimidin-3-yl)-2H-indazole-5-carboxamide], the IC50 stood at 0.0019 µM in test [1], 0.031 µM in test [2] (setting [4]) and 0.036 µM in test [3].
In the case of `COc1cc2nn([C@H]3CC[C@@]4(CC3)CC(=O)N(C)C4)cc2cc1C(=O)Nc1cnc2cccnn12` [Example 68, N-(Imidazo[1,2-b]pyridazin-3-yl)-6-methoxy-2-((5s,8s)-2-methyl-3-oxo-2-azaspiro[4.5]decan-8-yl)-2H-indazole-5-carboxamide], the IC50 was determined as 0.0016 µM in test [1], 0.084 µM in test [2] (setting [4]) and 0.053 µM in test [3].
As for `COc1cc2nn([C@@H]3CC[C@@](C)(O)C[C@H]3C)cc2cc1C(=O)Nc1cnc2cccnn12` [Example 93, 2-((1R,2R,4R)-4-hydroxy-2,4-dimethylcyclohexyl)-N-(imidazo[1,2-b]pyridazin-3-yl)-6-methoxy-2H-indazole-5-carboxamide], the figures for the IC50 in test [1], in test [2] (setting [4]) and in test [3] were 0.0004 µM, 0.03 µM and 0.008 µM, respectively.
With `CC(=O)N1CC2(CC[C@@H](n3cc4cc(C(=O)Nc5cnn6cccnc56)c(OC5CC5)cc4n3)[C@@H](C)C2)C1` (single isomer, unassigned) [Example 31], the figures for the IC50 in test [1], in test [2] (setting [5]) and in test [3] were 0.0008 µM, 0.032 µM and 0.071 µM, respectively.
With `O=C(Nc1cnn2cccnc12)c1cc2cn([C@H]3CCC[C@H](O)C3)nc2cc1OC1CC1` (single isomer, unassigned) [Example 20], the IC50 came out at 0.0007 µM in test [1], 0.031 µM in test [2] (setting [5]) and 0.035 µM in test [3].
For `COc1cc2nn([C@H]3CC[C@]4(CC3)CC(=O)N(C)C4)cc2cc1C(=O)Nc1cnc2cccnn12` [Example 69, N-(Imidazo[1,2-b]pyridazin-3-yl)-6-methoxy-2-((5r,8r)-2-methyl-3-oxo-2-azaspiro[4.5]decan-8-yl)-2H-indazole-5-carboxamide], the IC50 in test [1] was found to be 0.0005 µM; in test [2] (setting [4]) it was 0.015 µM; in test [3], 0.022 µM.
As for “6-Cyclopropoxy-2-((1r,4r)-4-(N-methylacetamido)cyclohexyl)-N-(pyrazolo[1,5-a]pyrimidin-3-yl)-2H-indazole-5-carboxamide [Example 33]”, the values for the IC50 in test [1], in test [2] (setting [5]) and in test [3] were 0.001 µM, 0.03 µM and 0.045 µM, respectively.
With `COc1cc2nn([C@H]3CCC(N(C)C(C)=O)C[C@@H]3C)cc2cc1C(=O)Nc1cnc2cccnn12` (single isomer, unassigned) [Example 34, N-(imidazo[1,2-b]pyridazin-3-yl)-6-methoxy-2-((1S,2S,4R*)-2-methyl-4-(N-methylacetamido)cyclohexyl)-2H-indazole-5-carboxamide], the results for the IC50 in test [1], in test [2] (setting [4]) and in test [3] were 0.002 µM, 0.022 µM and 0.031 µM, respectively.
As for `CC(=O)N1CC2(CC[C@@H](n3cc4cc(C(=O)Nc5cnn6cccnc56)c(OC5CC5)cc4n3)[C@@H](C)C2)C1` (single isomer, unassigned) [Example 30], the IC50 in test [1] was less than 0.0003 µM; in test [2] (setting [5]), 0.014 µM; in test [3], 0.046 µM.
As for `COc1cc2nn([C@H]3CC[C@H](O)C[C@@H]3C)cc2cc1C(=O)Nc1cnc2cccnn12` [Example 91, 2-((1S,2S,4S)-4-hydroxy-2-methylcyclohexyl)-N-(imidazo[1,2-b]pyridazin-3-yl)-6-methoxy-2H-indazole-5-carboxamide], the figures for the IC50 in test [1], in test [2] (setting [4]) and in test [3] were 0.0023 µM, 0.049 µM and 0.088 µM, respectively.
Consider `COc1cc2nn([C@H]3CC[C@H](N(C)C(C)=O)CC3)cc2cc1C(=O)Nc1cnn2cnccc12` [Example 25, 6-Methoxy-2-((1r,4r)-4-(N-methylacetamido)cyclohexyl)-N-(pyrazolo[1,5-c]pyrimidin-3-yl)-2H-indazole-5-carboxamide], for which the IC50 stood at 0.0014 µM in test [1], 0.023 µM in test [2] (setting [5]) and 0.019 µM in test [3].
`COc1cc2nn([C@H]3CCC[C@@H](O)C3)cc2cc1C(=O)Nc1cnn2cccnc12` (single isomer, unassigned) [Example 13]: the IC50 in test [1] was 0.0065 µM; in test [2] (setting [4]), 0.059 µM; in test [3], 0.816 µM.
With `C[C@H]1C[C@@H](O)CC[C@@H]1n1cc2cc(C(=O)Nc3cnn4cccnc34)c(OC3CC3)cc2n1` (single isomer, unassigned) [Example 45], the IC50 worked out at 0.0012 µM in test [1], 0.046 µM in test [2] (setting [4]) and 0.07 µM in test [3].
For `COc1cc2nn([C@H]3CC[C@H](O)CC3)cc2cc1C(=O)Nc1cnc2cccnn12` [Example 8, 2-((1r,4r)-4-Hydroxycyclohexyl)-N-(imidazo[1,2-b]pyridazin-3-yl)-6-methoxy-2H-indazole-5-carboxamide], the figures for the IC50 in test [1], in test [2] (setting [5]) and in test [3] were 0.0028 µM, 0.05 µM and 0.058 µM, respectively.
Turning to “2-((1r,4r)-4-(cyclopropanecarboxamido)cyclohexyl)-6-methoxy-N-(pyrazolo[1,5-a]pyrimidin-3-yl)-2H-indazole-5-carboxamide [Example 26]”, the IC50 in test [1] stood at 0.0016 µM; in test [2] (setting [5]) it was 0.025 µM; in test [3], 0.026 µM.
For the molecule `O=C(Nc1cnn2cccnc12)c1cc2cn([C@H]3CCC[C@@H](O)C3)nc2cc1OC1CC1` [Example 18], the IC50 in test [1] was less than 0.0006 µM; in test [2] (setting [5]), 0.021 µM; in test [3], 0.019 µM.
Consider `COc1cc2nn(C3CCC4(CC3)CC(C)(O)C4)cc2cc1C(=O)Nc1cnc2cccnn12` (single isomer, unassigned) [Example 5, 2-(2-Hydroxy-2-methylspiro[3.5]nonan-7-yl)-N-(imidazo[1,2-b]pyridazin-3-yl)-6-methoxy-2H-indazole-5-carboxamide], for which the figures for the IC50 in test [1], in test [2] (setting [4]) and in test [3] were 0.0005 µM, 0.016 µM and 0.031 µM, respectively.
For the molecule `O=C(Nc1cnn2cccnc12)c1cc2cn([C@H]3CCC[C@H](O)C3)nc2cc1OC1CC1` (single isomer, unassigned) [Example 19], the IC50 in test [1] was found to be 0.001 µM; in test [2] (setting [4]), 0.035 µM; in test [3], 0.047 µM.
As for `COc1cc2nn([C@@H]3CCC4(C[C@H]3C)CN(C(C)=O)C4)cc2cc1C(=O)Nc1cnc2cccnn12` (single isomer, unassigned) [Example 67], the results for the IC50 in test [1], in test [2] (setting [5]) and in test [3] were 0.0043 µM, 0.091 µM and 0.144 µM, respectively.
Take `COc1cc2nn([C@@H]3CC[C@](C)(O)C[C@H]3C)cc2cc1C(=O)Nc1cnc2cccnn12` [Example 92, 2-((1R,2R,4S)-4-hydroxy-2,4-dimethylcyclohexyl)-N-(imidazo[1,2-b]pyridazin-3-yl)-6-methoxy-2H-indazole-5-carboxamide]: the concentration for half-maximal inhibition (IC50) in test [1] was found to be 0.0016 µM; in test [2] (setting [4]), 0.028 µM; in test [3], 0.03 µM.
On to `COc1cc2nn([C@H]3CC[C@H](O)[C@@H](C)C3)cc2cc1C(=O)Nc1cnc2cccnn12` (single isomer, unassigned) [Example 80], for which the IC50 in test [1] stood at 0.0015 µM; in test [2] (setting [4]), 0.07 µM; in test [3], 0.028 µM.
As for `COc1cc2nn([C@@H]3CCC4(C[C@H]3C)CN(C(C)=O)C4)cc2cc1C(=O)Nc1cnc2cccnn12` (single isomer, unassigned) [Example 66], the IC50 was less than 0.0005 µM in test [1], 0.018 µM in test [2] (setting [5]) and 0.023 µM in test [3].
In the case of `COc1cc2nn([C@H]3CCC[C@@H](O)C3)cc2cc1C(=O)Nc1cnc2cccnn12` (single isomer, unassigned) [Example 10], the IC50 in test [1] was 0.0012 µM; in test [2] (setting [4]), 0.014 µM; in test [3], 0.019 µM.

These data come from patent US11866405B2, “Substituted indazoles as IRAK4 inhibitors” (AstraZeneca AB, priority 2020, dated 2024).
